Experimental data as given in ChEMBL document CHEMBL4261580, “Novel antitumor compound optimized from natural saponin Albiziabioside A induced caspase-dependent apoptosis and ferroptosis as a p53 activator through the mitochondrial pathway” (Eur J Med Chem, 2018).
The source made the active and inactive calls. No cut-off for these calls is given here.

What was measured:
[1] = tested on: Mus musculus; test: Toxicity in BALB/c nude mouse xenografted with human HCT116 cells assessed as change in body weight at 10 to 20 mg/kg, iv administered once per day for 14 days and measured every 2 days; assay type: organism-based; conditions: in vivo
[2] = tested on: HCT-116; test: Cytotoxicity against human HCT116 cells pretreated with Al3+ followed by compound addition up to 5 uM measured after 72 hrs by MTT assay; assay type: functional, cell-based
[3] = tested on: HCT-116; test: Induction of apoptosis in human HCT116 cells assessed as viable cells at 5 uM after 72 hrs by Annexin V-FITC/propidium iodide staining-based flow cytometric analysis (reference value: 92.86%); assay type: functional; conditions: HCT-116, 72 h, read-out: Activity
[4] = target: Cellular tumor antigen p53 (Homo sapiens) (UniProt P04637); test: Activation of p53 in human HCT116 cells assessed as upregulation of p53 expression after 48 hrs by Western blot analysis; assay type: cell-based
Cellular tumor antigen p53 (Homo sapiens), sequence (P04637 whole entry, looked up): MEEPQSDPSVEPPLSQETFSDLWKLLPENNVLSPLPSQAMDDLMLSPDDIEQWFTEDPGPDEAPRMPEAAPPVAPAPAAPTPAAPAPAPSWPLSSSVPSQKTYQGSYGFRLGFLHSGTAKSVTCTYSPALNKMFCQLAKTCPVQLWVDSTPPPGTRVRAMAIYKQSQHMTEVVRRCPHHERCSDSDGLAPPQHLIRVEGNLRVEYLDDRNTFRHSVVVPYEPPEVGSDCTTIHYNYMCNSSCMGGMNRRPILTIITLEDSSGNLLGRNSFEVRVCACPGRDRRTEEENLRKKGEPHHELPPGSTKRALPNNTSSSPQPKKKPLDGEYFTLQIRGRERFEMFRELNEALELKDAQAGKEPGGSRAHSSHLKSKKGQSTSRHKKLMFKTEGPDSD

[5] = tested on: Mus musculus; test: Toxicity in BALB/c nude mouse xenografted with human HCT116 cells assessed as abnormality in heart at 10 to 20 mg/kg, iv administered once per day by hematoxylin and eosin staining-based microscopic method; assay type: organism-based; conditions: in vivo
[6] = tested on: HCT-116; test: Disruption of mitochondrial membrane potential in human HCT116 cells assessed as intact mitochondrial membrane at 5 uM after 72 hrs by JC1 staining-based flow cytometry method (reference value: 0.33%); assay type: functional
[7] = Antiproliferative activity against adriamycin-resistant human Bel7402/ADR cells after 72 hrs by MTT assay; assay type: functional; conditions: Bel-7402, 72 h
[8] = tested on: BEAS-2B; test: Antiproliferative activity against human BEAS2B cells after 72 hrs by MTT assay; assay type: functional, cell-based
[9] = tested on: HCT-116; test: Disruption of mitochondrial membrane potential in human HCT116 cells assessed as intact mitochondrial membrane at 0.31 uM after 72 hrs by JC1 staining-based flow cytometry method (reference value: 0.33%); assay type: functional
[10] = tested on: HCT-116; test: Induction of ferroptosis in human HCT116 cells assessed as downregulation of GPX4 expression after 48 hrs by Western blot analysis; assay type: functional, cell-based
[11] = tested on: MGC-803; test: Antiproliferative activity against human MGC803 cells after 72 hrs by MTT assay; assay type: functional, cell-based; conditions: MGC-803, 72 h
[12] = tested on: HCT-116; test: Cytotoxicity against human HCT116 cells pretreated with Na+ followed by compound addition up to 5 uM measured after 72 hrs by MTT assay; assay type: functional, cell-based
[13] = tested on: HCT-116; test: Induction of apoptosis in human HCT116 cells assessed as cell shrinkage at 0.31 to 5 uM after 24 hrs by DAPI staining-based fluorescence microscopic method; assay type: functional
[14] = tested on: HCT-116; test: Disruption of mitochondrial membrane potential in human HCT116 cells assessed as collapse of mitochondrial membrane potential at 0.31 uM after 72 hrs by JC1 staining-based flow cytometry method (reference value: […]); assay type: functional
[15] = tested on: HCT-116; test: Induction of apoptosis in human HCT116 cells assessed as necrotic cells at 1.25 uM after 72 hrs by Annexin V-FITC/propidium iodide staining-based flow cytometric analysis (reference value: 0.76%); assay type: functional
[16] = tested on: PC-3; test: Antiproliferative activity against p53 deficient human PC3 cells at 0.31 to 5 uM after 72 hrs by MTT assay; assay type: functional, cell-based
[17] = tested on: HaCaT; test: Antiproliferative activity against human HaCaT cells after 72 hrs by MTT assay; assay type: cell-based
[18] = tested on: HCT-116; test: Cytotoxicity against human HCT116 cells pretreated with Mg2+ followed by compound addition up to 5 uM measured after 72 hrs by MTT assay; assay type: functional, cell-based
[19] = tested on: Mus musculus; test: Toxicity in BALB/c nude mouse xenografted with human HCT116 cells assessed as abnormality in kidney at 10 to 20 mg/kg, iv administered once per day by hematoxylin and eosin staining-based microscopic method; assay type: organism-based; conditions: in vivo
[20] = tested on: MCF7; test: Antiproliferative activity against human MCF7 cells after 72 hrs by MTT assay; assay type: functional, cell-based; conditions: MCF7, 72 h
[21] = tested on: HCT-116; test: Induction of apoptosis in human HCT116 cells assessed as late apoptotic cells at 0.31 uM after 72 hrs by Annexin V-FITC/propidium iodide staining-based flow cytometric analysis (reference value: 1.08%); assay type: functional
[22] = tested on: HCT-116; test: Induction of apoptosis in human HCT116 cells assessed as early apoptotic cells at 0.31 uM after 72 hrs by Annexin V-FITC/propidium iodide staining-based flow cytometric analysis (reference value: 5.30%); assay type: functional
[23] = tested on: HCT-116; test: Cytotoxicity against human HCT116 cells pretreated with Mn2+ followed by compound addition up to 5 uM measured after 72 hrs by MTT assay; assay type: functional, cell-based
[24] = tested on: HCT-116; test: Disruption of mitochondrial membrane potential in human HCT116 cells assessed as collapse of mitochondrial membrane potential at 1.25 uM after 72 hrs by JC1 staining-based flow cytometry method (reference value: […]); assay type: functional
[25] = tested on: HCT-116; test: Induction of apoptosis in human HCT116 cells assessed as viable cells at 0.31 uM after 72 hrs by Annexin V-FITC/propidium iodide staining-based flow cytometric analysis (reference value: 92.86%); assay type: functional; conditions: HCT-116, 72 h, read-out: Activity
[26] = tested on: A549; test: Antiproliferative activity against human A549 cells after 72 hrs by MTT assay; assay type: functional, cell-based; conditions: A549, 72 h
[27] = Antiproliferative activity against human HBMEC cells after 72 hrs by MTT assay; assay type: cell-based
[28] = tested on: HCT-116; test: Cytotoxicity against human HCT116 cells pretreated with ferrostatin-1 followed by compound addition up to 5 uM measured after 72 hrs by MTT assay; assay type: functional, cell-based
[29] = tested on: HCT-116; test: Induction of apoptosis in human HCT116 cells assessed as necrotic cells at 0.31 uM after 72 hrs by Annexin V-FITC/propidium iodide staining-based flow cytometric analysis (reference value: 0.76%); assay type: functional
[30] = tested on: HCT-116; test: Induction of apoptosis in human HCT116 cells assessed as necrotic cells at 5 uM after 72 hrs by Annexin V-FITC/propidium iodide staining-based flow cytometric analysis (reference value: 0.76%); assay type: functional
[31] = tested on: Mus musculus; test: Toxicity in BALB/c nude mouse xenografted with human HCT116 cells assessed as abnormality in liver at 10 to 20 mg/kg, iv administered once per day by hematoxylin and eosin staining-based microscopic method; assay type: organism-based; conditions: in vivo
[32] = tested on: HCT-116; test: Induction of apoptosis in human HCT116 cells assessed as formation of apoptotic bodies at 0.31 to 5 uM after 24 hrs by DAPI staining-based fluorescence microscopic method; assay type: functional, cell-based
[33] = tested on: L02; test: Antiproliferative activity against human LO2 cells after 72 hrs by MTT assay; assay type: cell-based; conditions: L02, 72 h
[34] = tested on: HCT-116; test: Antitumor activity against human HCT116 cells xenografted in BALB/c nude mouse assessed as decrease in tumor weight at 20 mg/kg, iv administered once per day for 14 days and measured every 2 days; assay type: functional; set-up: scale not given: the % may be the effect or the level left
[35] = Antiproliferative activity against taxol-resistant human HCT8/T cells after 72 hrs by MTT assay; assay type: functional; conditions: HCT-8, 72 h
[36] = tested on: HCT-116; test: Cytotoxicity against human HCT116 cells up to 5 uM after 72 hrs in presence of caspase inhibitor z-VAD-fmk by MTT assay; assay type: functional, cell-based
[37] = tested on: HCT-116; test: Induction of intracellular ROS generation in human HCT116 cells at 1.25 uM after 72 hrs by DCF-DA-dye based fluorescence microscopy (reference value: 2.74%); assay type: functional
[38] = tested on: HCT-116; test: Induction of apoptosis in human HCT116 cells assessed as viable cells at 1.25 uM after 72 hrs by Annexin V-FITC/propidium iodide staining-based flow cytometric analysis (reference value: 92.86%); assay type: functional; conditions: HCT-116, 72 h, read-out: Activity

Activity [4]: Dose-dependent effect | IC50 [11]: 7.35 µM | IC50 [20]: 10.5 µM | IC50 [26]: 9.18 µM
SMILES: CC(=O)N[C@H]1[C@H](O[C@H]2CC[C@]3(C)[C@H]4CC=C5[C@@H]6CC(C)(C)CC[C@]6(C(=O)OCc6cn(-c7cccc(C(C)=O)c7)nn6)CC[C@@]5(C)[C@]4(C)CC[C@H]3C2(C)C)O[C@H](CO[C@@H]2OC[C@H](O)[C@H](O)[C@@H]2O)[C@@H](O)[C@@H]1O
Activity [1]: Non-Toxic | Activity [2]: Active | viability at 5 µM [3]: 38.5% | Activity [5]: Non-Toxic | Activity [6]: 40.13% | IC50 [7]: 5.83 µM | IC50 [8]: 20.2 µM | Activity [9]: 10.97% | Activity [10]: Dose-dependent effect | Activity [12]: Active | Activity [13]: Active | Activity [14]: 89.03% | Activity [15]: 5.35% | Activity [16]: inactive | IC50 [17]: 37.1 µM | Activity [18]: Active | Activity [19]: Non-Toxic | Activity [21]: 12.51% | Activity [22]: 5.94% | Activity [23]: Active | Activity [24]: 77.36% | viability at 0.31 µM [25]: 78.9% | IC50 [27]: 32.2 µM | Activity [28]: inactive | Activity [29]: 2.62% | Activity [30]: 1.86% | Activity [31]: Non-Toxic | Activity [32]: Active | IC50 [33]: 33.2 µM | Activity [34]: 71.8% | IC50 [35]: 6.05 µM | Activity [36]: inactive | Activity [37]: 20.35% | viability at 1.25 µM [38]: 65.1%
